Patent US8906678B2, “Use of markers of undifferentiated pluripotent stem cell” (Agency for Science, Technology and Research, priority 2010, dated 2014)
Read-outs that look alike come from different tables or passages of the source. Bridge positions count the residues as written; N and C are the ends. Square brackets hold non-standard residues; d marks the D form. Peptide text beside a SMILES is read from it.

How the values were obtained:
Type in all cases: cell-based, human
HES-3 cells = settings: for killing efficiency on hESC, D-form vs L-form: 100 μm, after 120 hr; for relative viability: 100 μM
Method: Viability was determined using Propidium Iodide (PI) assay, where cells were trypsinized and resuspended in binding buffer (10 mM HEPES/NaOH, 140 mM NaCl and 2.5 mM CaCl2) containing 1.25 mg/ml of PI. The cells were incubated at room temperature for 15 min before analyzing on the flow cytometer.

HES-3 = test: Growth curve of HES-3 cultures (viable cell number vs time)
Method: Human embryonic stem cell line, HES-3, was obtained from ES Cell International (ESI, Singapore, http://escellinternational.com). The cells were cultured at 37° C., 5% CO2, on matrigel-coated culture dishes supplemented with conditioned media from immortalized mouse embryonic fibroblast, ΔE-MEF. The media used for culturing hESC was Knockout (KO) media containing 85% KO-DMEM (DMEM, Dulbecco's modified Eagle's medium) supplemented with 15% KO serum replacer, 1 mM L-glutamine, 1% non-essential amino acids, 0.1 mM 2-mercaptoethanol, and 10 ng/ml basic fibroblast growth factor (FGF-2; Invitrogen, Carlsbad, Calif., http://www.invitrogen.com). The cells were treated with collagenase IV (200 U/ml) or TrypLE Express solution (Invitrogen) and dissociated into small clumps or single cells respectively by repeated pipetting. The cells were then reseeded onto matrigel-coated plates at a passage ratio 1:4.
(§1) HES-3 and IMR-90 cells were cultured in 24 wells culture dishes supplemented with either 100 μM PHB-targeting pro-apoptotic peptide (CKGGRAKDC-GG-D(KLAKLAK)2 (SEQ ID NO:3)>90% purity; Sigma Aldrich) or 0.2% DMSO as control. Cultures were induced every 48 h and harvested daily for cell count. Cell numbers were determined using NucleoCounter according to the manufacturer's recommendations (Chemometec, Denmark, http://http://www.chemometec.com). The growth curves were generated by plotting viable cell number vs time. Specific growth rate, μ, was calculated as the gradient of the exponential phase, determined by plotting ln(cell number) vs time. Triplicates were done for each set of data.

IMR-90 cells = test: Growth curve of IMR-90 cells (specificity control)
Method: Human fetal lung fibroblast cell line, IMR-90 (CCL-186), was purchased from American Type Culture Collection and cultured according to the supplier's instructions.
as §1

ESIMR90 = system: ESIMR90
Method: Induced pluripotent stem cell line, ESIMR90, derived from lung fibroblasts, was obtained from James Thomson (18). ESIMR90 was cultured as per hESC cultures, with the exception of supplementing cultures with 100 ng/ml of FGF-2. For FGF-2 starved cultures, cells were maintained without FGF-2 as mentioned above. Viability was determined using Propidium Iodide (PI) assay, where cells were trypsinized and resuspended in binding buffer (10 mM HEPES/NaOH, 140 mM NaCl and 2.5 mM CaCl2) containing 1.25 mg/ml of PI. The cells were incubated at room temperature for 15 min before analyzing on the flow cytometer.

hESC [1] = test: Detection of caspase-3 activity / annexin V, hESC; settings: 100 μM peptide, 24 hours
Method: (§2) To detect caspase-3 activity in treated hESC, cells grown in 24 wells were incubated with 5 μM of NucView 488 Caspase-3 substrate (Biotium Inc, www.biotium.com) and sulforhodamine 101-annexin V (1.25 ug/ml; Biotium Inc) at room temperature for 30 min. Cells were then washed once with PBS and examined under the Olympus IX70 fluorescence microscope (Olympus, http://www.olvmousamerica.com). For flow cytometry analysis, hESC was trypinsized before resuspending cells in PBS containing caspase-3 substrate and annexin V reagents.

ESIMR90 cells = test: Detection of caspase-3 activity / annexin V, ESIMR90; settings: 100 μM peptide, 24 hours
Method: as §2

hESC [2] = test: TUNEL assay (nuclear DNA fragmentation); settings: after 48 hours
Method: Nuclear DNA fragmentation was measured via a TUNEL (Terminal deoxynucleotidyl transferase dUTP nick end labeling) assay kit (Promega, Madison, Wis., http://www.promega.com). Cells were harvested from each condition and fixed in 1% paraformaldehyde for 20 min on ice before permeabilizing them with ice-cold 70% ethanol at […] overnight. Subsequently, the cells were washed with PBS and incubated in 80 μl of equilibration buffer for 5 min at room temperature. The cells were pelleted down and resuspended in 50 μl of incubation buffer containing nucleotides and rTdT enzyme, followed by incubation at 37° C. for 1 h. The reaction was quenched using 20 mM EDTA and cells were resuspended in 0.1% Triton/0.5% BSA/PBS before analyzing on the flow cytometer. The green fluorescence of fluorescein-12-dUTP was detected in the FL1 channel.

[3] = system: MAPK pathway (ERK phosphorylation) in HES-3 cultures; test: SU5402 inhibitor study, ERK phosphorylation by western blot; settings: 20 μM and 30 μM SU5402 for 2 h, then 10 ng/ml FGF-2 for 15 min
Method: hESC cultured under various conditions were lysed and clarified via centrifugation before quantifying with the DC protein assay (Biorad, http://www.bio-rad.com). 20 ug of total protein from each condition was resolved and transferred onto membrane as described above. The resolved proteins were then immunoblotted with anti-actin (1:10,000; Abcam, http://www.abcam.com), anti-total ERK (1:1000; Sigma Aldrich) and anti-phospho-ERK (1:5000; Sigma Aldrich) antibodies. The protein bands were visualized using either ECL Plus detection reagent (Amersham, GE Healthcare, UK, http://www.gehealthcare.com) or LI-COR ODYSSY imaging system (LI-COR Biosciences, Nebraska, http://www.licor.com).
Efficacy of SU5402 (Calbiochem, San Diego, USA, http://www.emdbiosciences.com) was determined by culturing hESC in absence of FGF-2 for 5 days, followed by incubating with 20 μM or 30 μM of SU5402 for 2 h before inducing the treated cultures with FGF-2 for 15 min. Cells were then lysed and the lysates were analyzed using western blot analysis.

[4] = system: PHB surface expression in HES-3; test: SU5402 effect on PHB surface expression, flow cytometry, HES-3; settings: 20 μM or 30 μM SU5402 for 7 days
Method: Cells were harvested as single cell suspensions using trypsin, resuspended at 2×10^5 cells per 10 μl volume in 1% bovine serum albumin (BSA)/PBS and incubated for 45 min with each mAb clone (100 ul culture supernatant) or monoclonal TRA-1-60 antibody. (12.5 ug/ml; Chemicon, Temecula, Calif. http://www.chemicon.com). Cells were then washed with cold 1% BSA/PBS, and further incubated for 15 min with 1:500 dilution of fluorescein isothiocyanate (FITC)-conjugated goat α-mouse antibody (DAKO, Glostrup, Denmark, http://www.dako.com). After incubation, the cells were again washed and resuspended in 1% BSA/PBS for analysis on a FACScan (Becton, Dickinson and Company, Franklin Lakes, N.J., http://www.bd.com).
To observe the effect of SU5402 on expression of PHB in hESC, cells were seeded and allowed to adhere for 24 h before culturing them in the presence of SU5402 at concentrations of 20 μM or 30 μM for 7 days. Control cells were cultured similarly in the presence of the vehicle control, DMSO instead. Cells were subsequently harvested for flow cytometry analysis.

[5] = 100 μM of peptide, clump cultures

With `CC(C)C[C@H](NC(=O)[C@H](CCCCN)NC(=O)CNC(=O)CNC(=O)[C@H](CS)NC(=O)[C@H](CC(=O)O)NC(=O)[C@H](CCCCN)NC(=O)[C@H](C)NC(=O)[C@H](CCCNC(=N)N)NC(=O)CNC(=O)CNC(=O)[C@H](CCCCN)NC(=O)[C@@H](N)CS)C(=O)N[C@@H](C)C(=O)N[C@@H](CCCCN)C(=O)N[C@@H](CC(C)C)C(=O)N[C@@H](C)C(=O)N[C@@H](CCCCN)C(=O)N[C@@H](CCCCN)C(=O)N[C@@H](CC(C)C)C(=O)N[C@@H](C)C(=O)N[C@@H](CCCCN)C(=O)N[C@@H](CC(C)C)C(=O)N[C@@H](C)C(=O)N[C@@H](CCCCN)C(=O)O` [L-form peptide] (H-CKGGRAKDCGGKLAKLAKKLAKLAK-OH; N-terminus and C-terminus assumed) the “killing efficiency on hESC, D-form vs L-form” value (HES-3 cells) was “comparable” and the hESC viability (HES-3 cells; human, 120 hr) was less than 5%.
For `CC(C)C[C@@H](NC(=O)[C@@H](CCCCN)NC(=O)CNC(=O)CNC(=O)[C@@H]1CSSC[C@H](N)C(=O)N[C@@H](CCCCN)C(=O)NCC(=O)NCC(=O)N[C@@H](CCCNC(=N)N)C(=O)N[C@@H](C)C(=O)N[C@@H](CCCCN)C(=O)N[C@@H](CC(=O)O)C(=O)N1)C(=O)N[C@H](C)C(=O)N[C@H](CCCCN)C(=O)N[C@H](CC(C)C)C(=O)N[C@H](C)C(=O)N[C@H](CCCCN)C(=O)N[C@H](CCCCN)C(=O)N[C@H](CC(C)C)C(=O)N[C@H](C)C(=O)N[C@H](CCCCN)C(=O)N[C@H](CC(C)C)C(=O)N[C@H](C)C(=O)N[C@H](CCCCN)C(=O)O` [peptide, CKGGRAKDC-GG-D(KLAKLAK)2] (H-CKGGRAKDCGG[dK][dL][dA][dK][dL][dA][dK][dK][dL][dA][dK][dL][dA][dK]-OH; disulfide 1-9; N-terminus and C-terminus assumed), the “initiation of death phase” value (HES-3; [5]) was 70 h, the td (HES-3; [5]) was 61.3 h and the specific growth rate (HES-3; 100 μM of peptide, clump cultures, over 7 days) was 0.0113 h⁻¹. The “growth compared to the control” value (HES-3; peptide supplemented to TrypLE passaged cultures) was “minimal growth”, the “growth rate μ” value (IMR-90 cells; 100 μM of peptide) was 0.0167 h⁻¹ and the cell killing effect (IMR-90 cells; IMR-90 cells, which do not express PHB on membrane) was “minimal cell killing effect”. The “killing efficiency on hESC, D-form vs L-form” value (HES-3 cells) was “comparable”, the “toxic effect on hESC” value (HES-3 cells; concentrations less than 100 μM) was “minimal” and the “time of incubation to cell death via apoptosis” value (HES-3 cells; hESC) was no more than 48 h. The relative viability (HES-3 cells; human, 24 h) was 84.7%, the relative viability (HES-3 cells; human, 72 h) was 52.2% and the relative viability (HES-3 cells; human, 120 h) was 21.7%. For the same compound, the viability (HES-3 cells; human, 120 hr, 150 µM) was less than 10%, the viability (HES-3 cells; human, 120 hr, 200 µM) was less than 10% and the “apoptotic killing effect, dose dependence” value (HES-3 cells; titrated over 20 μM to 200 μM) was “concentration-dependent”. For the same compound, the “time of incubation to cell death via apoptosis” value (ESIMR90; IPSCs) was no more than 48 h, the relative viability (ESIMR90; human, 72 h) was 33.4% and the “population exhibiting elevated caspase-3 activity” value (hESC [1]; flow cytometry) was 71.1%. For the same compound, the “caspase-3 substrate and Annexin V staining” value (hESC [1]; fluorescence microscopy) was “exhibited caspase-3 activity and phosphatidylserine (PS) externalization”, the “population exhibiting elevated caspase-3 activity” value (ESIMR90 cells; flow cytometry) was 66.3% and the “caspase-3 substrate and Annexin V staining” value (ESIMR90 cells; fluorescence microscopy) was “exhibited caspase-3 activity and phosphatidylserine (PS) externalization”. For the same compound, the “DNA fragmentation compared to the control” value (hESC [2]) was “significant increase in DNA fragmentation”.
For `Cc1c[nH]c(/C=C2\C(=O)Nc3ccccc32)c1CCC(=O)O` [SU5402], the ERK phosphorylation [3] was “suppression of ERK phosphorylation” and the “surface expression of PHB” value [4] was “down-regulated surface expression of PHB”.
